According to US20210120789A1, “Genetically Modified Non-Human Animals” (Shanghai RAAS Blood Products Co., Ltd., priority 2019, published 2021):

Legend:
[1] = system: factor IX deficient mice (F9−/−); assay: Hemophilia B model, tail transection bleeding time; format: in vivo, mouse; conditions: distal tail transected at 4 mm, injected into an orbital vein 5 min before transection, vs no factor injected
Method: (§1) For hemophilia A model, 8 to 10-week-old mice including WT mice, factor VIII deficient mice (F8−/−) and human protein C knockin and factor VIII deficient double mutant mice (hproC+/+, F8−/−) anesthetized using 80 mg/kg sodium pentobarbital i.p. were placed on their abdomen with the tail immersed in 37° C. saline. The distal tail of mice was transected at 4 mm (severe injury), and the bleeding was arterial and venous. Human factor VIII was injected into an orbital vein 5 min before the tail was transected. Controls were also performed in which no Human Factor VIII was injected. For hemophilia B model, the same procedures were conducted except that factor IX deficient mice (F9−/−), human protein C knockin and factor IX deficient double mutant mice (hproC+/+, F9−/−), and human factor IX were used. Bleeding time was measured following the tail-tip transection and immediate immersion of the tail in 10 ml of saline at 37° C. Bleeding time was set at cessation of blood leakage for at least 1 min. After 15 min, the tail was removed from the saline and the bleeding time measure was ended.

[2] = system: human protein C knockin and factor IX deficient double mutant mice (hproC+/+, F9−/−); assay: Hemophilia B model, tail transection bleeding time; format: in vivo, mouse; conditions: distal tail transected at 4 mm, injected into an orbital vein 5 min before transection, vs no factor injected
Method: as §1

Substance: human factor IX: human blood clotting factor IX, injected before tail transection in the hemophilia B model
- bleeding time [1]: correct the prolonged bleeding time
- bleeding time [2]: correct the prolonged bleeding time
